Experimental data published in patent publication US20240262814A1, “MODULATORS OF TREX1” (Constellation Pharmaceuticals, Inc., priority 2021, published 2024).

How the values were obtained:
mouse TREX1 = molecular target: T1, mouse TREX1 (Mus musculus, UniProt Q91XB0); experiment: mTREX1 Biochemical Assay (fluorescence, dsDNA substrate degradation); conditions: full length mouse TREX1, 4 h pre-incubation, 18 h reaction at 25° C.
T1 construct: N-terminally His-Tev tagged full length mouse TREX1; made in house; host or cells: E. coli
T1 sequence (Q91XB0 1-314): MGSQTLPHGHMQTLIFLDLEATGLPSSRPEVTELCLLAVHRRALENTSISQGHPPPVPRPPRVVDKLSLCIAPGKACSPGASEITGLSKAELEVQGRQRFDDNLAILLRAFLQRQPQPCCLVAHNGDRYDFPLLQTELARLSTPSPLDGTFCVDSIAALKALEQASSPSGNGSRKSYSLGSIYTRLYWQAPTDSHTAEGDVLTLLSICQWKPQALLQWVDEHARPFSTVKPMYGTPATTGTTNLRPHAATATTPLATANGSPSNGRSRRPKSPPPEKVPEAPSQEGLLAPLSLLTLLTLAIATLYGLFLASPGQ
Procedure, shortened: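 Full-length His-Tev mouse TREX1 (E. coli) was preincubated with compound 4 h at 25 °C, then run 18 h at 25 °C. Finals were 6 pM enzyme, 60 nM TEX615/quencher dsDNA, 1% DMSO, pH 7.4 Tris with 5 mM MgCl2. After EDTA quench, fluorescence was read at 615 nm; IC50 by four-parameter fit against EDTA and no-inhibitor controls.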

human TREX1 = molecular target: T2, human TREX1 (Homo sapiens, UniProt Q9NSU2); experiment: TREX1 kinetics assays (TR-FRET association and dissociation with biotinylated probe); format: binding; conditions: for koff / kon: hTREX1, 25° C., global fit Kintek Explorer; for Kd / residence time: hTREX1, kinetic data
T2 construct: N-terminally His-Tev tagged full length human TREX1; made in house; host or cells: E. coli
T2 sequence (Q9NSU2 1-314): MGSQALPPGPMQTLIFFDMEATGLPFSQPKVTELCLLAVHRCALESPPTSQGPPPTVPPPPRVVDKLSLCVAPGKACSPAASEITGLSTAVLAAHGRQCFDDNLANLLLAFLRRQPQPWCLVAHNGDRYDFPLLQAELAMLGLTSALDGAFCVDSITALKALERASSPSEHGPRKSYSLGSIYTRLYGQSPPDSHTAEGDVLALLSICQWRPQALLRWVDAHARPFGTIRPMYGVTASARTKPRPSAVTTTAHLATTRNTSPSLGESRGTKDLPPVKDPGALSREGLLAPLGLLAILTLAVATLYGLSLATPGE
Experimental: Compound binding kinetics were assessed using a pair of TR-FRET assays which measure the proportion of protein bound to a biotinylated TREX1 inhibitor (“probe”).
N-terminally His-Tev tagged full length human TREX1 (expressed in E. coli and purified in house), complexed with Eu-W 1024-anti-6×His (“Eu”; PerkinElmer) in reaction buffer (50 mM Tris, 150 mM NaCl, 2 mM DTT, 0.1 mg/mL BSA, 0.01% (w/v) Tween-20, 5 mM MgCl2, pH 7.4) was combined with an equal volume of test compound in reaction buffer and incubated at 25° C. Concentrations at this stage were 1 nM TREX1/Eu complex, and four concentrations of compound (diluted from 10 mM stocks in 100% DMSO). At defined time points, 18 μL of this mixture was withdrawn and combined with 2 p L probe to a final concentration of 1 μM probe. After incubating for 30 seconds, 18 μL was withdrawn and combined with 2 μL streptavidin-allophycocyanin (“SA-APC”; PerkinElmer) to a final concentration of 1.5 μM SA-APC. Fifteen μL of this mixture was then immediately transferred to a 384-well Black ProxiPlate Plus (PerkinElmer) and read in an EnVision plate reader (PerkinElmer) measuring fluorescence at 615 nm and 665 nm following excitation w/337 nm laser light. Final concentrations were 0.8 nM TREX1/Eu complex, 0.9 μM probe, and 1.5 μM SA-APC.
N-terminally His-Tev tagged full length human TREX1 (expressed in E. coli and purified in house), complexed with Eu-W1024-anti-6×His (“Eu”; PerkinElmer) in reaction buffer (50 mM Tris, 150 mM NaCl, 2 mM DTT, 0.1 mg/mL BSA, 0.01% (w/v) Tween-20, 5 mM MgCl2, pH 7.4) was combined with an equal volume of test compound in reaction buffer. Concentrations at this stage were 100 nM TREX1/Eu complex and 100 nM test compound (diluted from 10 mM stocks in 100% DMSO). Following an equilibration period of at least an hour at 25° C., this mixture was diluted 100-fold into reaction buffer containing 1 μM probe, and incubated at 25° C. At defined time points, 36 μL of the reaction mixture was withdrawn and combined with 4 μL streptavidin-allophycocyanin (“SA-APC”; PerkinElmer) to a final concentration of 1.5 μM SA-APC. Fifteen μL of this mixture was then immediately transferred to duplicate wells of a 384-well Black ProxiPlate Plus (PerkinElmer) and read in an EnVision plate reader (PerkinElmer) measuring fluorescence at 615 nm and 665 nm following excitation w/ 337 nm laser light.
The TR-FRET signal, a ratio of 665 nm/615 nm emitted light, was converted to fraction enzyme bound to test compound by normalizing to low signal (no enzyme or test compound) and high signal (no test compound) controls. Data from both association and dissociation experiments were fitted globally using Kintek Explorer software, which computes the rate constants directly.

IC50 (mouse TREX1) [nM] | koff (human TREX1) [s⁻¹] | kon (human TREX1) [M⁻¹ s⁻¹] | Kd (human TREX1) [nM] | residence time (human TREX1) [min] | SMILES
1 to 10 | 3.6e-05 | 164000 | 0.219 | 463 | CC(c1nc(C(=O)Nc2cnoc2)c(O)c(=O)n1C)C(c1ccccc1)c1ccccc1C#N (single isomer, unassigned) [Example 3 Isomer 4]
1 to 10 | 3.37e-05 | 173000 | 0.194 | 495 | CC(c1nc(C(=O)Nc2cnoc2)c(O)c(=O)n1C)C(c1ccccc1)c1cc(F)ccc1C#N (single isomer, unassigned) [Example 6 Isomer 4]
1 to 10 | 4.17e-05 | 116000 | 0.361 | 400 | CC(c1nc(C(=O)Nc2cnoc2)c(O)c(=O)n1C)C(c1ccccc1)c1cc(Cl)ccc1C#N (single isomer, unassigned) [Example 8 Isomer 2]
< 1 | 2.07e-05 | 178000 | 0.116 | 806 | CC(c1nc(C(=O)Nc2cnoc2)c(O)c(=O)n1C)C(c1ccccc1)c1ccc(Cl)cc1C#N (single isomer, unassigned) [Example 9 Isomer 4]
1 to 10 | – | – | – | – | CC(c1nc(C(=O)Nc2cnoc2)c(O)c(=O)n1C)C(c1ccccc1)c1cc(C(=O)N(C)C)ccc1C#N (single isomer, unassigned) [Example 17 Isomer 3]

More lines, now with the values behind:

SMILES | IC50 (mouse TREX1) [nM] | koff (human TREX1) [s⁻¹] | kon (human TREX1) [M⁻¹ s⁻¹] | Kd (human TREX1) [nM] | residence time (human TREX1) [min]
CC(c1nc(C(=O)Nc2cnoc2)c(O)c(=O)n1C)C(c1ccccc1)c1ccccc1 (single isomer, unassigned) [Example 1 Isomer 1, 2-(1,1-diphenylpropan-2-yl)-5-hydroxy-N-(isoxazol-4-yl)-1-methyl-6-oxo-1,6-dihydro pyrimidine-4-carboxamide] | > 10 | – | – | – | –
CC(c1nc(C(=O)Nc2cnoc2)c(O)c(=O)n1C)C(c1ccccc1)c1ccccc1 (single isomer, unassigned) [Example 1 Isomer 2, 2-(1,1-diphenylpropan-2-yl)-5-hydroxy-N-(isoxazol-4-yl)-1-methyl-6-oxo-1,6-dihydro pyrimidine-4-carboxamide] | > 10 | 0.000192 | 50300 | 3.8 | 87
C[C@H](c1nc(C(=O)Nc2cnoc2)c(O)c(=O)n1C)[C@H](c1ccccc1)c1ccccc1Cl (single isomer, unassigned) [Example 2 Isomer 3, 2-(1-(2-chlorophenyl)-1-phenylpropan-2-yl)-5-hydroxy-N-(isoxazol-4-yl)-1-methyl-6-oxo-1,6-dihydropyrimidine-4-carboxamide] | 1 to 10 | 5.48e-05 | 159000 | 0.345 | 304
CC(c1nc(C(=O)Nc2cnoc2)c(O)c(=O)n1C)C(c1ccccc1C#N)c1ccccc1C#N (single isomer, unassigned) [Example 4 Isomer 2] | < 1 | 3.83e-05 | 907000 | 0.042 | 435
CC(c1nc(C(=O)Nc2cnoc2)c(O)c(=O)n1C)C(c1ccccc1Cl)c1ccccc1C#N (single isomer, unassigned) [Example 10 Isomer 1] | < 1 | 3.15e-05 | 448000 | 0.07 | 529
CC(c1nc(C(=O)Nc2cnoc2)c(O)c(=O)n1C)C(c1cc(F)cc(F)c1)c1ccccc1C#N (single isomer, unassigned) [Example 11 Isomer 3] | < 1 | 1.92e-05 | 257000 | 0.075 | 870
C[C@H](c1nc(C(=O)Nc2cnoc2)c(O)c(=O)n1C)[C@H](c1ccccc1)c1ccccc1C(F)(F)F (single isomer, unassigned) [Example 14 Isomer 2, 5-Hydroxy-N-(isoxazol-4-yl)-1-methyl-6-oxo-2-(1-phenyl-1-(2-(trifluoromethyl)phenyl)propan-2-yl)-1,6-dihydropyrimidine-4-carboxamide] | > 10 | – | – | – | –
C[C@H](c1nc(C(=O)Nc2cnoc2)c(O)c(=O)n1C)C(c1ccccc1Cl)c1ccccc1Cl (single isomer, unassigned) [Example 15 Isomer 1, 2-(1,1-bis(2-chlorophenyl)propan-2-yl)-5-hydroxy-N-(isooxazol-4-yl)-1-methyl-6-oxo-1,6-dihydropyrimidine-4-carboxamide] | < 1 | 4.77e-05 | 260000 | 0.183 | 350
Cn1c([C@H](C(c2ccccc2)c2ccccc2)C(F)(F)F)nc(C(=O)Nc2cnoc2)c(O)c1=O (single isomer, unassigned) [Example 20 Isomer 1, 5-Hydroxy-N-(isoxazol-4-yl)-1-methyl-6-oxo-2-(1,1,1-trifluoro-3,3-diphenylpropan-2-yl)-1,6-dihydropyrimidine-4-carboxamide] | > 10 | – | – | – | –
Cn1c([C@@H](C(c2ccccc2C#N)c2ccccc2C#N)C(F)(F)F)nc(C(=O)Nc2cnoc2)c(O)c1=O (single isomer, unassigned) [Example 21 Isomer 1, 2-(3,3-bis(2-cyanophenyl)-1,1,1-trifluoropropan-2-yl)-5-hydroxy-N-(isoxazol-4-yl)-1-methyl-6-oxo-1,6-dihydropyrimidine-4-carboxamide] | 1 to 10 | – | – | – | –
